Data taken from patent US12257214B2, “Compositions and methods comprising deoxy-pentitols” (The Charlotte Mecklenburg Hospital Authority, priority 2021, dated 2025).

Assays:
Format in all cases: cell-based
PC-3 = assay: ATPlite cell IC50 screening, PC-3; settings: Homo sapiens; PC-3, Prostate carcinoma; ATPlite luminescence
Method: (§1) In brief, the cells were cultures in relevant medium and treated with a range of 9 doses of 2-deoxyribitol, from 10 mM, 5 mM, 2.5 mM, 1.25 mM, 0.62 mM, 0.31 mM, 0.08 mM, and 0.04 mM. Cells were diluted in the corresponding ATCC recommended medium and dispensed in a 384-well plate, depending on the cell line used, at a density of 100-6400 cells per well in 45 μl medium. For each used cell line the optimal cell density was used. The margins of the plate were filled with phosphate-buffered saline. Plated cells were incubated in a humidified atmosphere of 5% CO2 at 37° C. After 24 hours, 5 μl of compound dilution was added and plates were further incubated. At the end of experiment (t=end), 24 μl of ATPlite 1Step™ (PerkinElmer) solution was added to each well, and subsequently shaken for 2 minutes. After 10 minutes of incubation in the dark, the luminescence was recorded on an Envision multimode reader (PerkinElmer). IC50 was determined in comparison with the control samples. The cell lines tested and their corresponding disease model is indicated the left-most and middle columns, respectively. IC50 values are given in μM values in the right-most column. This screening was performed of a list of cancer cells to establish IC50 values for each of the cancer cell lines. This screening provides evidence for the potential of 2DR to treat many cancer types.

SW837 = assay: ATPlite cell IC50 screening, SW837; settings: Homo sapiens; SW837, Rectal adenocarcinoma; ATPlite luminescence
Method: as §1

DB = assay: ATPlite cell IC50 screening, DB; settings: Homo sapiens, Diffuse large B-cell lymphoma, ATPlite luminescence
Method: as §1

NCI-H460 = assay: ATPlite cell IC50 screening, NCI-H460; settings: Homo sapiens; NCI-H460, Large cell lung carcinoma; ATPlite luminescence
Method: as §1

HCT 116 = assay: ATPlite cell IC50 screening, HCT 116; settings: Homo sapiens; HCT 116, Colon carcinoma; ATPlite luminescence
Method: as §1

T24 = assay: ATPlite cell IC50 screening, T24; settings: Homo sapiens, T-24; T24, Bladder carcinoma; ATPlite luminescence
Method: as §1

SU-DHL-6 = assay: ATPlite cell IC50 screening, SU-DHL-6; settings: Homo sapiens; SU-DHL-6, Diffuse large B-cell lymphoma; ATPlite luminescence
Method: as §1

DLD-1 = assay: ATPlite cell IC50 screening, DLD-1; settings: Homo sapiens; DLD-1, Colon adenocarcinoma; ATPlite luminescence
Method: as §1

HL-60 = assay: ATPlite cell IC50 screening, HL-60; settings: Homo sapiens; HL-60, Adult acute myeloid leukemia; ATPlite luminescence
Method: as §1

MOLT-4 = assay: ATPlite cell IC50 screening, MOLT-4; settings: Homo sapiens; MOLT-4, Adult T acute lymphoblastic leukemia; ATPlite luminescence
Method: as §1

A-204 = assay: ATPlite cell IC50 screening, A-204; settings: Homo sapiens, A204; A-204, Embryonal rhabdomyosarcoma; ATPlite luminescence
Method: as §1

SW620 = assay: ATPlite cell IC50 screening, SW620; settings: Homo sapiens, SW-620; SW620, Colon adenocarcinoma; ATPlite luminescence
Method: as §1

A-549 = assay: ATPlite cell IC50 screening, A-549; settings: Homo sapiens, A549; A-549, Lung adenocarcinoma; ATPlite luminescence
Method: as §1

breast cancer T47D cells = assay: T47D cell growth
Method: (§2) Less than 50% of cells and 10% of cells were detected with the treatment of 10 mM and 50 mM 2-deoxyribitol, respectively.

HCT-15 = assay: ATPlite cell IC50 screening, HCT-15; settings: Homo sapiens; HCT-15, Colon adenocarcinoma; ATPlite luminescence
Method: as §1

Daoy = assay: ATPlite cell IC50 screening, Daoy; settings: Homo sapiens, Medulloblastoma, ATPlite luminescence
Method: as §1

SW982 = assay: ATPlite cell IC50 screening, SW982; settings: Homo sapiens; SW982, Biphasic synovial sarcoma; ATPlite luminescence
Method: as §1

G-361 = assay: ATPlite cell IC50 screening, G-361; settings: Homo sapiens; G-361, Melanoma; ATPlite luminescence
Method: as §1

SW900 = assay: ATPlite cell IC50 screening, SW900; settings: Homo sapiens; SW900, Squamous cell lung carcinoma; ATPlite luminescence
Method: as §1

RT4 = assay: ATPlite cell IC50 screening, RT4; settings: Homo sapiens, RT-4; RT4, Bladder carcinoma; ATPlite luminescence
Method: as §1

786-O = assay: ATPlite cell IC50 screening, 786-O; settings: Homo sapiens, 786-0, Renal cell carcinoma, ATPlite luminescence
Method: as §1

RKO = assay: ATPlite cell IC50 screening, RKO; settings: Homo sapiens, Colon carcinoma, ATPlite luminescence
Method: as §1

MCF7 cells = assay: Anchorage independent growth, tumor colonies in agar gel (FIG. 3); settings: 20 days
Text: Stars indicate a significant difference as compared to the control (p<0.01, n=3).
(§3) However, this effect was not related to the enhanced expression of glycosylation of α-DG.

SUP-T1 = assay: ATPlite cell IC50 screening, SUP-T1; settings: Homo sapiens; SUP-T1, Childhood T lymphoblastic lymphoma; ATPlite luminescence
Method: as §1

C-33 A = assay: ATPlite cell IC50 screening, C-33 A; settings: Homo sapiens, Cervical squamous cell carcinoma, ATPlite luminescence
Method: as §1

[1] = system: MDA231 cells (triple negative breast cancer cell); assay: MDA231 cell growth
Method: as §3, §2

NCI-H82 = assay: ATPlite cell IC50 screening, NCI-H82; settings: Homo sapiens; NCI-H82, Small cell lung carcinoma; ATPlite luminescence
Method: as §1

MIA PaCa-2 = assay: ATPlite cell IC50 screening, MIA PaCa-2; settings: Homo sapiens; MIA PaCa-2, Pancreatic ductal adenocarcinoma; ATPlite luminescence
Method: as §1

JAR = assay: ATPlite cell IC50 screening, JAR; settings: Gestational choriocarcinoma, ATPlite luminescence
Method: as §1

RPMI-7951 = assay: ATPlite cell IC50 screening, RPMI-7951; settings: Homo sapiens; RPMI-7951, Melanoma; ATPlite luminescence
Method: as §1

OCC[C@H](O)[C@H](O)CO [2-deoxyribitol]
IC50 (PC-3): 3.68 mM | IC50 (SW837): 9.79 mM | IC50 (DB): 4.08 mM | IC50 (NCI-H460): 3.17 mM | IC50 (HCT 116): 5.73 mM | IC50 (T24): > 10 mM | IC50 (SU-DHL-6): 4.06 mM | IC50 (DLD-1): 4.53 mM | IC50 (HL-60): 7.46 mM | IC50 (MOLT-4): 4.94 mM | IC50 (A-204): 6.06 mM | IC50 (SW620): 5.22 mM | IC50 (A-549): 9.97 mM | inhibiting cell growth (breast cancer T47D cells): had an effect on inhibiting cell growth | IC50 (HCT-15): 7.7 mM | IC50 (Daoy): 6.24 mM | IC50 (SW982): 2.78 mM | IC50 (G-361): > 10 mM | IC50 (SW900): 3.19 mM | IC50 (RT4): > 10 mM | IC50 (786-O): 8.57 mM | IC50 (RKO): 5.77 mM | cell colonies in agar culture (MCF7 cells; 10 mM): absence of cell colony | anchorage independent growth (formation of tumor colonies within agar gel) (MCF7 cells; 10 mM and 20 mM): significantly inhibited | IC50 (SUP-T1): 3.06 mM | IC50 (C-33 A): 7.6 mM | inhibitory effect as seen in MCF7 (growth / anchorage independent growth) ([1]; MDA231, concentrations lower than 10 mM): clearly demonstrated | inhibiting cell growth ([1]; MDA231 cells): had an effect on inhibiting cell growth | IC50 (NCI-H82): 2.94 mM | IC50 (MIA PaCa-2): 4.87 mM | IC50 (JAR): 3.6 mM | IC50 (RPMI-7951): 6.77 mM
